Entries after “also recorded” stand apart in the source; their conditions may differ. Counter-ions that a name gives are not always drawn. Like-named read-outs stand apart in the source and are kept apart here. Positions of bridges follow the written chain, without caps; N, C: chain ends. Residues, ends and D or L forms follow the SMILES beside them.
Tests used:
ovulation = test: Ovulation in proestrus rats (ova flushed from oviducts and counted); format: in vivo, rat
Method: (§1) These subjects were administered various dosages of the peptides of the invention as well as control materials, i.e., saline solution alone, and the naturally occuring peptides, vasopressin and oxytocin, that are related to the cyclic nonapeptide, 8-arginine vasotocin. Both vasopressin and oxytocin are well documented in the literature. Vasopressin is very closely related to 8-arginine vastocin, and has the cyclic nonapeptide structure: [drawing 2] wherein the 3rd amino acid moiety is phenylalanine rather than isoleucine that occurs in the 8-arginine vasotocin. In all other respects the vasopressin peptide chain is identical to 8-arginine vasotocin. Vasopressin is found in the posterior lobe of the pituitary gland.
(§2) More specifically, in normal cycling female rats there is a dramatic surge in the level of luteinizing hormone (LH) in the blood on the afternoon of proestrus. This surge of LH can be detected by monitoring periodic blood samples. These samples are secured by inserting a cannula into the right atrium of the heart. 50 microliters of blood are withdrawn each hour for some 6 to 7 samples. The levels of LH therein is determined using radioimmunossay techniques. Under normal circumstances, ovulation occurs about 12 hours later. The oviducts are then removed and the ova are recovered therefrom by inserting a hypodermic into the tubal ostium and flushing with phosphate-buffered saline. Freed ova are collected in a micropipette and counted. In the tests, the normal cycling rats were administered both control saline, and various dosages of 8-arginine vasotocin, prolyl-arginyl-glycinamide, prolyl-lysyl-glycinamide, vasopressin and oxytocin.
(§3) In every instance, the peptide dosage was administered in saline via heart cannula at one hour intervals over a 4 hour period.

[1] = tested on: Pre-Ovulatory Surge of Prolactin; test: Pre-ovulatory surge of prolactin in rats; format: in vivo, rat; conditions: for Inhibitory effect on prolactin surge (in words): summary of Table II
Method: 8-arginine vasotocin, vasopressin, and oxytocin were administered at various dosage levels and rates to a number of rats. Saline solution was utilized as a control.

preovulatory surge of LH = test: Pre-ovulatory LH surge in proestrus rats (hourly blood samples, radioimmunoassay); format: in vivo, rat; conditions: for LH surge and ovulation inhibitory effect (in words): administered prior to ovulation, rats
Method: as §1, §2, §3

[2] = reason given for unsuitability in the method; cited from earlier work
[3] = rat, in vivo
Source text: The level of nonapeptide or tripeptide in the body fluids necessary to inhibit the LH surge and subsequent ovulation will vary from species to species and from individual to individual. In this regard, however, the nonapeptide does appear to have at least 50-100 times the activity, on a weight basis, of the tripeptide. Therefore, effective dosage levels of the tripeptides are necessarily higher than the nonapeptides, by as much as two or three orders of magnitude. On the other hand, the tripeptide, being a much simpler molecular, is more easily metabolized, and the higher dosage requirements are easily tolerated and produce no side effects. […] A technique similar to that disclosed herein for the synthesis of the tripeptide may be utilized; although it will be recognized that the production of a nine membered peptide will be considerably more costly and time consuming that the production of the tripeptide. But such synthesis techniques are available to secure the 8-arginine vasotocin utilized in the present invention.

[4] = proestrus rats, dosage 0.1 μg in saline via heart cannula at one hour intervals over a 4 hour period, acetate salt
[5] = proestrus rats, dosage 1.0 μg in saline via heart cannula at one hour intervals over a 4 hour period, acetate salt
[6] = dosage 1μg/120 min, total dose 2 μg
[7] = dosage 1μ/30 min, total dose 7 μg
[8] = dihydrochloride form, dosage 1 μg, same conditions as Table I
[9] = proestrus rats, dosage 5.0 μg in saline via heart cannula at one hour intervals over a 4 hour period, acetate salt
[10] = proestrus rats, dosage 0.6 mg in saline via heart cannula at one hour intervals over a 4 hour period, acetate salt

Structure (SMILES) | Presence of Ova (%) (ovulation; [4]) | Presence of Ova (%) (ovulation; [5]) | Presence of Prolactin Surge (%) [1, 6] | Presence of Prolactin Surge (%) [1, 7] | Inhibitory effect on prolactin surge (in words) [1] | LH surge and ovulation inhibitory effect (in words) (preovulatory surge of LH) | Presence of LH Surges (%) (preovulatory surge of LH; [4]) | Presence of LH Surges (%) (preovulatory surge of LH; [5]) | Presence of Ova (%) (ovulation; [10]) | Presence of LH Surges (%) (preovulatory surge of LH; [10]) | other results
CC[C@H](C)[C@@H]1NC(=O)[C@H](Cc2ccc(O)cc2)NC(=O)[C@@H](N)CSSC[C@@H](C(=O)N2CCC[C@H]2C(=O)N[C@@H](CCCNC(=N)N)C(=O)NCC(N)=O)NC(=O)[C@H](CC(N)=O)NC(=O)[C@H](CCC(N)=O)NC1=O [8-arginine-Vasotocin, 8-arginine vasotocin] (H-CYIQNCPRG-NH2; disulfide 1-6) | 45% | 22% | 0% | 4% | high inhibitory effect | effectively blocked | 34% | 5% | – | – | Presence of Prolactin Surge (%) ([1]; dosage 1μg/240 min, total dose 5 μg): 80%; Presence of Prolactin Surge (%) ([1]; dosage 1μ/60 min, total dose 4 μg): 14%; Effect on basal levels of luteinizing hormone in the blood (preovulatory surge of LH; basal LH, not the surge): does not appear to suppress the basal levels; Activity of the nonapeptide relative to the tripeptide (preovulatory surge of LH; on a weight basis): 50-100 times
NC(=O)CC[C@@H]1NC(=O)[C@H](Cc2ccccc2)NC(=O)[C@H](Cc2ccc(O)cc2)NC(=O)[C@@H](N)CSSC[C@@H](C(=O)N2CCC[C@H]2C(=O)N[C@@H](CCCN=C(N)N)C(=O)NCC(N)=O)NC(=O)[C@H](CC(N)=O)NC1=O [Vasopressin, reference compound] | 94% | 62% | 57% | 17% | a lesser effect | considerable activity | 94% | 37% | – | – | Side effects [2]: severe vasocontrictive side effects
CC[C@H](C)[C@@H]1NC(=O)[C@H](Cc2ccc(O)cc2)NC(=O)[C@@H](N)CSSC[C@@H](C(=O)N2CCC[C@H]2C(=O)N[C@@H](CCCNC(=N)N)C(=O)NCC(N)=O)NC(=O)[C@H](CC(N)=O)NC(=O)[C@H](CCC(N)=O)NC1=O [8-arginine vasotocin-dihydrochloride] (H-CYIQNCPRG-NH2; disulfide 1-6) | – | – | – | – | – | – | – | – | – | – | Presence of Ova (%) (ovulation; [8]): 20%; Presence of LH Surges (%) (preovulatory surge of LH; [8]): 0%
CC[C@H](C)[C@@H]1NC(=O)[C@H](Cc2ccc(O)cc2)NC(=O)[C@@H](N)CSSC[C@@H](C(=O)N2CCC[C@H]2C(=O)N[C@@H](CC(C)C)C(=O)NCC(N)=O)NC(=O)[C@H](CC(N)=O)NC(=O)[C@H](CCC(N)=O)NC1=O [Oxytocin, reference compound] | – | 100% | 84% | 60% | the lowest effect | essentially inactive | – | 100% | – | – | Presence of Ova (%) (ovulation; [9]): 94%; Presence of LH Surges (%) (preovulatory surge of LH; [9]): 94%
NCCCC[C@H](NC(=O)[C@@H]1CCCN1)C(=O)NCC(N)=O [Prolyl-lysyl-glycinamide, prolyl-lysyl-glycinamide] (H-Pro-Lys-Gly-NH2) | – | – | – | – | – | – | – | – | 30% | 15% | LH surge and ovulation inhibitory effect (in words) (preovulatory surge of LH; listed as Prolyl-Lysyl-Glycinamide): exhibits luteinizing hormone suppressing and anovulatory properties; LH surge and ovulation inhibitory effect (in words) (preovulatory surge of LH; listed as prolyl-lysyl-glycinamide): high inhibition of the LH surge and ovulation
N=C(N)NCCC[C@H](NC(=O)[C@@H]1CCCN1)C(=O)NCC(N)=O [Prolyl-arginyl-glycinamide, prolyl-arginyl-glycinamide] (H-Pro-Arg-Gly-NH2) | – | – | – | – | – | exhibits a similar luteinizing hormone suppressing effect that also inhibits ovulation; also recorded: high inhibition of the LH surge and ovulation | – | – | 42% | 25% | Side effects [3]: no noticable side effects
